Experimental data taken from patent US11453666B2, “Autotaxin inhibitory compounds” (Cancer Research Technology Limited, priority 2015, dated 2022).

What follows are compounds tested against human recombinant ATX (Homo sapiens, UniProt Q13822) (assay: Autotaxin (ATX) activity Quanta Red assay). Settings: Table 2: additional compounds tested for ATX activity (Quanta Red Assay); read-out: Activity.
Assay type: biochemical
Procedure: The reaction was stopped after 2 hours with a 20 μL addition of Quanta Red Stop solution (1:20 dilution in distilled water). The above-described mixture with DMSO alone was used as a positive control whereas that with DMSO alone without ATX was taken as a negative control.
Fluorescence was determined in a BMG Labtech Pherastar plus plate reader ([…]). Data were analysed using Excel fit software. IC50 values were determined in duplicate.

IC50 [nM] | Structure (SMILES)
200 | COc1ccc(Cn2c(CCC(=O)NCc3cccc(Cl)c3)nc3cccnc32)cc1 [Example 231, N-(3-Chloro-benzyl)-3-[3-(4-methoxy-benzyl)-3H-imidazo[4,5-b]pyridin-2-yl]-propionamide]
3830 | COc1ccc(Cn2c(CCC(=O)Nc3ccc(F)cc3)nc3cccnc32)cc1 [Example 227, N-(4-Fluoro-phenyl)-3-[3-(4-methoxy-benzyl)-3H-imidazo[4,5-b]pyridin-2-yl]-propionamide]
720 | COc1ccc(Cn2c(CCC(=O)NCc3ccc4c(c3)OCO4)nc3cccnc32)cc1 [Example 234, N-Benzo[1,3]dioxol-5-ylmethyl-3-[3-(4-methoxy-benzyl)-3H-imidazo[4,5-b]pyridin-2-yl]-propionamide]
627 | Cc1ccc(CNC(=O)CCc2nc3cccnc3n2Cc2ccccc2)cc1 [Example 235, 3-(3-Benzyl-3H-imidazo[4,5-b]pyridin-2-yl)-N-(4-methyl-benzyl)-propionamide]
89 | COc1ccc(Cn2c(CCC(=O)NCc3ccc(F)cc3)nc3cccnc32)cc1 [Example 219, N-(4-Fluoro-benzyl)-3-[3-(4-methoxy-benzyl)-3H-imidazo[4,5-b]pyridin-2-yl]-propionamide]

Same assay, conditions: Table 3: commercially available compounds tested for Autotaxin activity (Quanta Red assay); read-out: Activity

IC50 [nM] | Structure (SMILES)
406 | COc1ccc(Cn2c(CCC(=O)NCc3ccccc3)nc3cccnc32)cc1 [Example 236, N-Benzyl-3-[3-(4-methoxy-benzyl)-3H-imidazo[4,5-b]pyridin-2-yl]-propionamide, reference compound]

Same assay, conditions: human recombinant ATX 0.8 μg/mL, 2 hours at room temperature, IC50 determined in duplicate; read-out: Activity (ATX activity, Quanta Red assay; IC50)

IC50 [nM] | Structure (SMILES)
5 | C[C@H](NC(=O)COc1nc2cccnc2n1Cc1ccc(OC(F)(F)F)cc1)c1ccc(Cl)cc1 [Example 152, N—[(S)-1-(4-chloro-phenyl)-ethyl]-2-[3-(4-trifluoromethoxy-benzyl)-3H-imidazo[4,5-b]pyridin-2-yloxy]-acetamide]
855 | O=C(CCc1nc2cccnc2n1Cc1ccccc1)NCc1cccs1 [Example 3, 3-(3-Benzyl-3H-imidazo[4,5-b]pyridin-2-yl)-N-thiophen-2-ylmethyl-propionamide]

Structure (SMILES) | IC50 [nM]
C[C@H](NC(=O)C[S+]([O-])c1nc2cccnc2n1Cc1ccc(OC(F)(F)F)cc1)c1ccc(F)cc1 (single isomer, unassigned) [Example 148] | 10

Same assay, conditions: read-out: Activity (ATX activity, Quanta Red assay; IC50)

Structure (SMILES) | IC50 [nM]
CCN(CC)Cc1ccc([C@H](C)NC(=O)CCc2nc3cccnc3n2Cc2ccc(F)c(F)c2)cc1 [Example 207, N-[(S)-1-(4-Diethylaminomethyl-phenyl)-ethyl]-3-[3-(3,4-difluoro-benzyl)-3H-imidazo[4,5-b]pyridin-2-yl]-propionamide] | 25
COc1ccc(Cn2c(CCC(=O)NCc3cccc(F)c3)nc3cccnc32)cc1 [Example 117, N-(3-Fluoro-benzyl)-3-[3-(4-methoxy-benzyl)-3H-imidazo[4,5-b]pyridin-2-yl]-propionamide] | 373
O=C(CCc1nc2cccnc2n1Cc1cccs1)N[C@H](Cc1ccccc1)C(=O)O [Example 202, (R)-3-Phenyl-2-[3-(3-thiophen-2-ylmethyl-3H-imidazo[4,5-b]pyridin-2-yl)-propionylamino]-propionic acid] | 819
COc1cccc([C@H](C)NC(=O)NCc2nc3cccnc3n2Cc2ccc(F)cc2)c1 [Example 165, 1-[3-(4-Fluoro-benzyl)-3H-imidazo[4,5-b]pyridin-2-ylmethyl]-3-[(S)-1-(3-methoxy-phenyl)-ethyl]-urea] | 514
COc1ccc(CNC(=O)CCc2nc3cccnc3n2Cc2ccc(F)c(F)c2)cc1 [Example 100, 3-[3-(3,4-Difluoro-benzyl)-3H-imidazo[4,5-b]pyridin-2-yl]-N-(4-methoxy-benzyl)-propionamide] | 50
O=C(CCc1nc2cccnc2n1Cc1ccc(OC(F)(F)F)cc1)NCC1CCOCC1 [Example 62, N-(Tetrahydro-pyran-4-ylmethyl)-3-[3-(4-trifluoromethoxy-benzyl)-3H-imidazo[4,5-b]pyridin-2-yl]-propionamide] | 125
C[C@H](NC(=O)OCc1nc2cccnc2n1Cc1ccc(F)cc1)c1ccc(F)cc1 [Example 166, [(S)-1-(4-fluoro-phenyl)-ethyl]-carbamic acid 3-(4-fluoro-benzyl)-3H-imidazo[4,5-b]pyridin-2-ylmethyl Ester] | 336
COc1cc(OC(F)(F)F)ccc1CNC(=O)CCc1nc2cccnc2n1Cc1ccc(F)c(F)c1 [Example 74, 3-[3-(3,4-Difluoro-benzyl)-3H-imidazo[4,5-b]pyridin-2-yl]-N-(2-methoxy-4-trifluoromethoxy-benzyl)-propionamide] | 339
C[C@H](NC(=O)CCc1nc2cc(Br)cnc2n1Cc1ccc(OC(F)(F)F)cc1)c1ccc(Cl)cc1 [Example 61] | 100
Cc1cnc2c(c1)nc(CCC(=O)N[C@@H](C)c1ccc(N3CCN[C@@H](C)C3)cc1)n2Cc1ccc(OC(F)(F)F)cc1 [Example 192, N-{(S)-1-[4-((S)-3-Methyl-piperazin-1-yl)-phenyl]-ethyl}-3-[6-methyl-3-(4-trifluoromethoxy-benzyl)-3H-imidazo[4,5-b]pyridin-2-yl]-propionamide] | 56
CCC[C@H](NC(=O)CCc1nc2ccncc2n1Cc1ccc(F)cc1)c1ccccc1 [Example 134, 3-[3-(4-Fluoro-benzyl)-3H-imidazo[4,5-c]pyridin-2-yl]-N-((S)-1-phenyl-butyl)-propionamide] | 133
O=C(CCc1nc2cccnc2n1Cc1ccc(OC(F)(F)F)cc1)N[C@@H](Cc1ccccc1)C(=O)O [Example 199, (S)-3-Phenyl-2-{3-[3-(4-trifluoromethoxy-benzyl)-3H-imidazo[4,5-b]pyridin-2-yl]-propionylamino}-propionic acid] | 71

The next lines start with the values.

IC50 [nM] | Structure (SMILES)
1 | O=C(CCc1nc2cccnc2n1Cc1ccc(OC(F)(F)F)cc1)N[C@@H](CO)c1ccccc1 [Example 7, N-((R)-2-Hydroxy-1-phenyl-ethyl)-3-[3-(4-trifluoromethoxy-benzyl)-3H-imidazo[4,5-b]pyridin-2-yl]-propionamide]
5 | C[C@H](NC(=O)CCc1nc2cccnc2n1Cc1ccc(F)c(F)c1)c1ccccc1 [Example 86, 3-[3-(3,4-Difluoro-benzyl)-3H-imidazo[4,5-b]pyridin-2-yl]-N-((S)-1-phenyl-ethyl)-propionamide]
3 | C[C@H](NC(=O)CCc1nc2cccnc2n1Cc1ccc(F)cc1)c1ccc(N2CCCCCC2)cc1 [Example 178, N-[(S)-1-(4-Azepan-1-yl-phenyl)-ethyl]-3-[3-(4-fluoro-benzyl)-3H-imidazo[4,5-b]pyridin-2-yl]-propionamide]
1 | C[C@H](NC(=O)CCc1nc2cccnc2n1Cc1ccc(OC(F)(F)F)cc1)c1ccc(N2CC[C@@H](N(C)C)C2)cc1 [Example 168, N-{(S)-1-[4-((R)-3-Dimethylamino-pyrrolidin-1-yl)-phenyl]-ethyl}-3-[3-(4-trifluoromethoxy-benzyl)-3H-imidazo[4,5-b]pyridin-2-yl]-propionamide]
4 | COc1ccc(Cn2c(CCC(=O)N[C@@H](C)c3ccc(Cl)cc3)nc3cccnc32)cc1F [Example 24, N-[(S)-1-(4-Chloro-phenyl)-ethyl]-3-[3-(3-fluoro-4-methoxy-benzyl)-3H-imidazo[4,5-b]pyridin-2-yl]-propionamide]
12 | C[C@H](NC(=O)CCc1nc2cccnc2n1Cc1ccc(F)c(F)c1)c1ccc(N2CCN[C@@H](C)C2)cc1 [Example 184, 3-[3-(3,4-Difluoro-benzyl)-3H-imidazo[4,5-b]pyridin-2-yl]-N-{(S)-1-[4-((S)-3-methyl-piperazin-1-yl)-phenyl]-ethyl}-propionamide]
5 | C[C@H](NC(=O)CCc1nc2cccnc2n1Cc1ccc(F)c(F)c1)c1ccc(N2CCNC(C(F)(F)F)C2)cc1 (stereo partly drawn) [Example 179, 3-[3-(3,4-Difluoro-benzyl)-3H-imidazo[4,5-b]pyridin-2-yl]-N-{(S)-1-[4-(3-trifluoromethyl-piperazin-1-yl)-phenyl]-ethyl}-propionamide]
9 | O=C(CCc1nc2cccnc2n1Cc1ccc(OC(F)(F)F)cc1)N[C@H]1CCCc2ccccc21 [Example 38, N-(S)-1,2,3,4-Tetrahydro-naphthalen-1-yl-3-[3-(4-trifluoromethoxy-benzyl)-3H-imidazo[4,5-b]pyridin-2-yl]-propionamide]
7 | Cc1cnc2c(c1)nc(CCC(=O)N[C@@H](C)c1ccc(Cl)cc1)n2Cc1ccc(OC(F)(F)F)cc1 [Example 211, N—[(S)-1-(4-chloro-phenyl)-ethyl]-3-[6-methyl-3-(4-trifluoromethoxy-benzyl)-3H-imidazo[4,5-b]pyridin-2-yl]-propionamide]
2 | O=C(CCc1nc2cccnc2n1Cc1ccc(OC(F)(F)F)cc1)NC(CO)c1ccc(F)cc1 (stereo not shown) [Example 15, N-[1-(4-Fluoro-phenyl)-2-hydroxy-ethyl]-3-[3-(4-trifluoromethoxy-benzyl)-3H-imidazo[4,5-b]pyridin-2-yl]-propionamide]
3 | O=C(COc1nc2cccnc2n1Cc1ccc(OC(F)(F)F)cc1)N[C@@H](CO)c1ccccc1 [Example 151, N-((R)-2-Hydroxy-1-phenyl-ethyl)-2-[3-(4-trifluoromethoxy-benzyl)-3H-imidazo[4,5-b]pyridin-2-yloxy]-acetamide]
6 | C[C@H](NC(=O)CCc1nc2cccnc2n1Cc1ccc(F)cc1)c1ccccc1 [Example 87, 3-[3-(4-Fluoro-benzyl)-3H-imidazo[4,5-b]pyridin-2-yl]-N-((S)-1-phenyl-ethyl)-propionamide]
18 | O=C(CCc1nc2cccnc2n1Cc1ccc(F)c(F)c1)N[C@@H]1c2ccccc2C[C@@H]1O [Example 46, 3-[3-(3,4-Difluoro-benzyl)-3H-imidazo[4,5-b]pyridin-2-yl]-N-((1R,2S)-2-hydroxy-indan-1-yl)-propionamide]
